Results on 26 molecules are retold here after patent US7951815B2, “Substituted 1,4,8-triazaspiro [4,5]decan-2-one compounds” (Gruenenthal GmbH, priority 2004, dated 2011).

T1 sequence (P31652 whole entry): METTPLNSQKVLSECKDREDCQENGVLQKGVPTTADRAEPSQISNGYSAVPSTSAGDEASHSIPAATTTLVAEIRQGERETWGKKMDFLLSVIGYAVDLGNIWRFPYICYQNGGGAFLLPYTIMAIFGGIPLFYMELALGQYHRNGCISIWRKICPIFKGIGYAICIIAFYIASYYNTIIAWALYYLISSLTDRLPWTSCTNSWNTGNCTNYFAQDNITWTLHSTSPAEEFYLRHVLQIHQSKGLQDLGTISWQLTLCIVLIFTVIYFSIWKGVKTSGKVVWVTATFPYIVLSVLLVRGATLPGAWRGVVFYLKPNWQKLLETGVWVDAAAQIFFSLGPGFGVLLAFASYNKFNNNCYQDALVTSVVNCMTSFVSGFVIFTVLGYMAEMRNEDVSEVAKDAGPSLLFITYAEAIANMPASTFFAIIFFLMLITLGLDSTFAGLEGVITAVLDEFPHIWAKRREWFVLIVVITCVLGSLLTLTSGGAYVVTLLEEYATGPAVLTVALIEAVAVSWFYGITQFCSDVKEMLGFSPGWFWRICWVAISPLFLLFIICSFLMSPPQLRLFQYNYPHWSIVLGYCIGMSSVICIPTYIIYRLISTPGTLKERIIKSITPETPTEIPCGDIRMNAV

One assay addresses T1, 5-HT transporter (Rattus norvegicus, UniProt P31652).
T1 construct: synaptosomes of rat brain areas are freshly isolated; from tissue; host or cells: rat brain synaptosomes (P2 fraction) from marrow and pons
The assay is described as follows: Inhibition of 5-HT uptake in rat brain synaptosomes. Conditions: Table III; rat, 1 μM. It is filed as biochemical.
As to `CC(=O)Nc1ccc(C(=O)N2CCC3(CC2)NC(CC(C)C)C(=O)N3CCCCOC(C)=O)cc1` (centres unmarked) [Example 255, Butyl 4-[8-(4-acetylaminobenzoyl)-3-isobutyl-2-oxo-1,4,8-triazaspiro[4,5]dec-1-yl]acetate], the “Uptake 5-HT, rat, 1 μM, % inhibition” value came to 44%.

`C=CCN1C(=O)C(CCSC)NC12CCN(C(=O)c1ccc(S(N)(=O)=O)cc1)CC2` (centres unmarked) [Example 259, 4-[1-Allyl-3-(2-methylsulfanylethyl)-2-oxo-1,4,8-triazaspiro[4,5]decan-8-carbonyl]benzolsulfonamide]: the “Uptake 5-HT, rat, 1 μM, % inhibition” value is listed as 50%.

For `CC(=O)OC(C(=O)N1CCC2(CC1)NCC(=O)N2Cc1cccc(C#N)c1)c1ccccc1` (centres unmarked) [Example 284, Ethyl 2-[1-(3-cyanobenzyl)-2-oxo-1,4,8-triazaspiro[4,5]dec-8-yl]-2-oxo-1-phenylacetate], the “Uptake 5-HT, rat, 1 μM, % inhibition” value is given as 51%.

For the molecule `CCOc1ccccc1C(=O)N1CCC2(CC1)NC(CC(C)C)C(=O)N2CCCCOC(C)=O` (centres unmarked) [Example 310, Butyl 4-[8-(2-ethoxybenzoyl)-3-isobutyl-2-oxo-1,4,8-triazaspiro[4,5]dec-1-yl]acetate], the “Uptake 5-HT, rat, 1 μM, % inhibition” value turned out to be 48%.

Still in this assay, the particulars now being: read-out: Uptake 5-HT, % inhibition; Table III; rat, 1 μM.
Take `CCCCN1C(=O)C(CCSC)NC12CCN(C(=O)c1cc(OC)cc(OC)c1)CC2` (centres unmarked) [Example 229, 1-Butyl-8-(3,5-dimethoxybenzoyl)-3-(2-methylsulfanylethyl)-1,4,8-triazaspiro[4,5]decan-2-one]: the inhibition – broadly, the percentage by which the read-out fell short of the control – at 1 µM was found to be 36%.

Take `CSCCC1NC2(CCN(C(=O)c3c(F)ccc(C)c3F)CC2)N(C)C1=O` (centres unmarked) [Example 231, 8-(2,6-Difluoro-3-methylbenzoyl)-1-methyl-3-(2-methylsulfanylethyl)-1,4,8-triazaspiro[4,5]decan-2-one]: the inhibition at 1 µM was found to be 31%.

For `CC(C)=CCN1C(=O)C(C(C)C)NC12CCN(C(=O)c1c(-c3c(F)cccc3Cl)noc1C)CC2` (centres unmarked) [Example 233, 8-[3-(2-Chloro-6-fluorophenyl)-5-methylisoxazole-4-carbonyl]-3-isopropyl-1-(3-methylbut-2-enyl)-1,4,8-triazaspiro[4,5]decan-2-one], the inhibition at 1 µM came out at 30%.

`C#CCN1C(=O)C(CC(C)C)NC12CCN(C(=O)c1ccc(OC(F)(F)F)cc1)CC2` (centres unmarked) [Example 234, 3-Isobutyl-1-prop-2-ynyl-8-(4-trifluoromethoxybenzoyl)-1,4,8-triazaspiro[4,5]decan-2-one]: the inhibition at 1 µM was determined as 45%.

As to `Cc1cc(C(=O)N2CCC3(CC2)NC(Cc2ccccc2)C(=O)N3C)no1` (centres unmarked) [Example 239, 3-Benzyl-1-methyl-8-(5-methylisoxazole-3-carbonyl)-1,4,8-triazaspiro[4,5]decan-2-one], the inhibition at 1 µM amounted to 36%.

Regarding `CCCCN1C(=O)C(Cc2ccccc2)NC12CCN(C(=O)c1snnc1C)CC2` (centres unmarked) [Example 243, 3-Benzyl-1-butyl-8-(4-methyl[1,2,3]thiadiazole-5-carbonyl)-1,4,8-triazaspiro[4,5]decan-2-one], the inhibition at 1 µM amounted to 46%.

Consider `C#CCN1C(=O)C(Cc2ccccc2)NC12CCN(C(=O)c1snnc1C)CC2` (centres unmarked) [Example 244, 3-Benzyl-8-(4-methyl[1,2,3]thiadiazole-5-carbonyl)-1-prop-2-ynyl-1,4,8-triazaspiro[4,5]decan-2-one], for which the inhibition at 1 µM turned out to be 51%.

With `C#CCN1C(=O)C(Cc2ccccc2)NC12CCN(C(=O)c1cc(C)on1)CC2` (centres unmarked) [Example 251, 3-Benzyl-8-(5-methylisoxazole-3-carbonyl)-1-prop-2-ynyl-1,4,8-triazaspiro[4,5]decan-2-one], the inhibition at 1 µM came out at 50%.

Consider `COC(=O)c1ccc(CN2C(=O)CNC23CCN(C(=O)c2cccnc2Cl)CC3)cc1` [Example 252, Methyl 4-[8-(2-chloropyridin-3-carbonyl)-2-oxo-1,4,8-triazaspiro[4,5]dec-1-ylmethyl]benzoate], for which the inhibition at 1 µM turned out to be 73%.

Consider `Cc1cc(C(=O)N2CCC3(CC2)NCC(=O)N3Cc2ccccc2F)n(C(C)(C)C)n1` [Example 253, 8-(2-tert-Butyl-5-methyl-2H-pyrazole-3-carbonyl)-1-(2-fluorobenzyl)-1,4,8-triazaspiro[4,5]decan-2-one], for which the inhibition at 1 µM is 82%.

On to `COC(=O)c1ccc(CN2C(=O)CNC23CCN(C(=O)c2cccnc2SC)CC3)cc1` [Example 254, Methyl 4-[8-(2-methylsulfanylpyridin-3-carbonyl)-2-oxo-1,4,8-triazaspiro[4,5]dec-1-ylmethyl]benzoate], for which the inhibition at 1 µM came out at 34%.

For the molecule `C=CCN1C(=O)C(CCSC)NC12CCN(C(=O)C(=O)OCC)CC2` (centres unmarked) [Example 261, Ethyl 2-[1-allyl-3-(2-methylsulfanylethyl)-2-oxo-1,4,8-triazaspiro[4,5]dec-8-yl]-2-oxo-acetate], the inhibition at 1 µM is 39%.

As for `CCOC(=O)CN1C(=O)C(CCSC)NC12CCN(C(=O)CC)CC2` (centres unmarked) [Example 263, Ethyl [3-(2-methylsulfanylethyl)-2-oxo-8-propionyl-1,4,8-triazaspiro[4,5]dec-1-yl]acetate], the inhibition at 1 µM was 50%.

As for `COC(=O)c1ccc(CN2C(=O)CNC23CCN(C(=O)C2CCCC2)CC3)cc1` [Example 269, Methyl 4-(8-cyclopentanecarbonyl-2-oxo-1,4,8-triazaspiro[4,5]dec-1-ylmethyl)benzoate], the inhibition at 1 µM is 40%.

In the case of `COc1cc(C(=O)N2CCC3(CC2)NCC(=O)N3Cc2cccc(C#N)c2)cc(OC)c1OC` [Example 277, 3-[2-Oxo-8-(3,4,5-trimethoxybenzoyl)-1,4,8-triazaspiro[4,5]dec-1-ylmethyl]benzonitrile], the inhibition at 1 µM was 43%.

For the molecule `COCC(=O)N1CCC2(CC1)NC(C(C)C)C(=O)N2Cc1cccc(C#N)c1` (centres unmarked) [Example 282, 3-[3-Isopropyl-8-(2-methoxyacetyl)-2-oxo-1,4,8-triazaspiro[4,5]dec-1-ylmethyl]benzonitrile], the inhibition at 1 µM is 49%.

For `COC(=O)c1ccc(CN2C(=O)CNC23CCN(C(=O)Cc2ccccc2)CC3)cc1` [Example 283, Methyl 4-(2-oxo-8-phenylacetyl-1,4,8-triazaspiro[4,5]dec-1-ylmethyl)benzoate], the inhibition at 1 µM was 51%.

With `COC(=O)c1ccc(CN2C(=O)CNC23CCN(C(=O)C2CCCCC2)CC3)cc1` [Example 286, Methyl 4-(8-cyclohexanecarbonyl-2-oxo-1,4,8-triazaspiro[4,5]dec-1-ylmethyl)benzoate], the inhibition at 1 µM worked out at 47%.

On to `N#Cc1cccc(CN2C(=O)CNC23CCN(C(=O)c2ccccc2C(F)(F)F)CC3)c1` [Example 308, 3-[2-Oxo-8-(2-trifluoromethylbenzoyl)-1,4,8-triazaspiro[4,5]dec-1-ylmethyl]benzonitrile], for which the inhibition at 1 µM came out at 59%.

As to `COc1cccc(C(=O)N2CCC3(CC2)NCC(=O)N3Cc2ccccc2F)c1` [Example 311, 1-(2-Fluorobenzyl)-8-(3-methoxybenzoyl)-1,4,8-triazaspiro[4,5]decan-2-one], the inhibition at 1 µM was found to be 49%.

On to `Cn1nc(C(C)(C)C)cc1C(=O)N1CCC2(CC1)NCC(=O)N2Cc1ccccc1F` [Example 313, 8-(5-tert-Butyl-2-methyl-2H-pyrazole-3-carbonyl)-1-(2-fluorobenzyl)-1,4,8-triazaspiro[4,5]decan-2-one], for which the inhibition at 1 µM is 60%.

`CCOC(=O)CN1C(=O)C(Cc2ccccc2)NC12CCN(C(=O)c1ccccc1F)CC2` (centres unmarked) [Example 315, Ethyl [3-benzyl-8-(2-fluorobenzoyl)-2-oxo-1,4,8-triazaspiro[4,5]dec-1-yl]acetate]: the inhibition at 1 µM was 61%.
